These results are taken from patent US6420557B1, “Crystalline therapeutic agent” (Pfizer Inc., priority 2000, dated 2002).

The target of one data set is cGMP PDE5 (Homo sapiens, UniProt O76074). The following applies: statement in words, as detailed in WO 01/27113; cited from earlier work.
Data set [1] can be described thus: early investigations of the crystals (hygroscopicity, stability, formulation properties). Particulars: crystals having the XRD pattern of Table 1. The class given is physicochemical.

Regarding `CCOc1ncc(S(=O)(=O)N2CCN(CC)CC2)cc1-c1nc2c(CC)n(CCOC)nc2c(=O)[nH]1` [Example 1, 1-{6-ethoxy-5-[3-ethyl-6,7-dihydro-2-(2-methoxyethyl)-7-oxo-2H-pyrazolo[4,3-d]pyrimidin-5-yl]-3-pyridylsulfonyl}-4-ethylpiperazine], the “cGMP PDE5 inhibitor potency and selectivity” value at cGMP PDE5 was “potent and selective”. In data set [1], the formulation properties entry was “good formulation properties”, the hygroscopicity result was “non-hygroscopic” and the stability result was “stable”.
